These results are taken from publication PMC9042912, “T cell receptor and IL-2 signaling strength control memory CD8^+ T cell functional fitness via chromatin remodeling” (Nature Communications, 2022).

The Kd is a measure of binding affinity in units of concentration.

One test deals with T1, H2-K^b (Mus musculus, UniProt P01901).
T1 construct: RMA-S cells were added per well to a 96-well flat-bottom plate and incubated at 30 °C overnight; endogenous in cells; host or cells: RMA-S cells (TAP-deficient), obtained from Dr. Steve Porcelli
T1 sequence (P01901 22-369): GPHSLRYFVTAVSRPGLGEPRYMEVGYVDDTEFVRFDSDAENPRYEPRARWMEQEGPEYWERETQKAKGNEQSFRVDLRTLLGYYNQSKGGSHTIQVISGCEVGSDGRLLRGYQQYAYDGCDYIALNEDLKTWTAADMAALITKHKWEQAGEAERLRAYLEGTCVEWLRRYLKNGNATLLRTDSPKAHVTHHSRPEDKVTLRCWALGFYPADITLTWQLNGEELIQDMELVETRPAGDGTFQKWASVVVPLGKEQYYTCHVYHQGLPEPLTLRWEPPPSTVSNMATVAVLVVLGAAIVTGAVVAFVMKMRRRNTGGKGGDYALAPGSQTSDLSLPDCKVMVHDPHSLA
T1 sequence (P01887 21-119 partner): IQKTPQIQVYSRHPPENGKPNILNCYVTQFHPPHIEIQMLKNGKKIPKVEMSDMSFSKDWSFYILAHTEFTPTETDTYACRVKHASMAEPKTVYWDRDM
Description: cell-based.

Test [1] deals with OT-I, gBT-I, P14, L9.6 T cells. To be noted: mouse.
The next test deals with H2-D^b (Mus musculus, UniProt P01899). The class given is cell-based.
H2-D^b, sequence (P01899 25-362, one chain of several): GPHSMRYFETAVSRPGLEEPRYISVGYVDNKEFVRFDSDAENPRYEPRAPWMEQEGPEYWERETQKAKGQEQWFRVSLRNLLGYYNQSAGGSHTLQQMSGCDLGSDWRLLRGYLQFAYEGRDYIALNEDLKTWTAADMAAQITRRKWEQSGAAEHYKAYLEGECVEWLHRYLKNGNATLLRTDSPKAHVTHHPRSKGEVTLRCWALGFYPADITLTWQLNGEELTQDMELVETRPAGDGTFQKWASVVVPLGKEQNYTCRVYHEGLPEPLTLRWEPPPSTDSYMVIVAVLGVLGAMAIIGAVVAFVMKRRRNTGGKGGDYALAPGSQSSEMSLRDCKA
A further test has as its system OT-I cells. The class given is in vivo, mouse. The following applies: for % Il2ra mut/mut among OT-I / % WT among OT-I: individual values.

Values joined by “and” are separate entries in the source; they are usually repeats but may differ in a detail not shown here. Identical values can stand only once. Like-named read-outs stand apart in the source and are kept apart here. No end group written: not given here.

The compound `CC[C@H](C)[C@H](NC(=O)[C@@H](NC(=O)[C@@H](N)CO)[C@@H](C)CC)C(=O)N[C@@H](CC(N)=O)C(=O)N[C@@H](Cc1ccccc1)C(=O)N[C@@H](CCC(=O)O)C(=O)N[C@@H](CCCCN)C(=O)N[C@@H](CC(C)C)C(=O)O` [N4] showed a dissociation constant (Kd) at H2-K^b of 0.111 µM.

On to KAVYNFATC [GP33-41], for which, in test [1], the “duration for which the Lm-expressed epitope induces naïve T cell proliferation in vivo” value is ~ 2 days. Moreover, the “formation of stable complexes with D^b” value on H2-D^b is listed as “form stable MHC class I complexes”.

At H2-K^b, SIIQFEKL [Q4] gave a Kd of 0.065 µM.

Consider SIITFEKL [T4], for which, on H2-K^b, the Kd is 0.059 µM.

SSIEFARL [gB498-505] came in with a dissociation constant (Kd) on H2-K^b of 0.032 µM.

As for diphtheria toxin [DT], the “decrease of primary OT-I cell expansion” value in the test with OT-I cells (CD11c+ cell depletion 2 days after Lm-Ova infection) is listed as ~ 50%. Besides, the “% Il2ra mut/mut among OT-I” value in the test with OT-I cells (Memory + DT) was 29.30% and 45.50% and 51.90% and 25.10% and 25.90% and 50.30% and 56.40%; with OT-I cells (Primary + DT), 4.26% and 7.74% and 13.10% and 8.93% and 11.40% and 29.60% and 21.10% and 24.20% and 24.80% and 4.23%. Further, the “% WT among OT-I” value with OT-I cells (Memory + DT) is 70.10% and 54.40% and 47.80% and 74.30% and 73.60% and 49.50% and 43.40%; in the test on OT-I cells (Primary + DT), 91.80% and 86.30% and 90.50% and 87.80% and 89.00% and 69.30% and 77.20% and 73.40% and 64.60% and 95.20% and 95.30%. For the same compound, the “% OT-I” value in the test with OT-I cells (depletion of CD11c+ cells in CD11c-DTR mice, compared with control group, each value one mouse (Suppl. Fig. 4B)) was 4.98% and 8.05% and 8.87% and 13.60%.
